Five compounds from patent US20260022142A1, “MACROCYCLIC IMMUNOMODULATORS” (Bristol-Myers Squibb Company, priority 2022, published 2026) can be followed below.

Structures are written as SMILES. Bridge positions count the residues as written; N and C are the ends. Square brackets hold non-standard residues; d marks the D form. Peptide text beside a SMILES is read from it. * marks the point of attachment. ξ: configuration not given here. Phe(4-COOH) = N[C@@H](Cc1ccc(C(=O)O)cc1)C(=O)O; Bip = N[C@@H](Cc1ccc(-c2ccccc2)cc1)C(=O)O; hArg = N=C(N)NCCCC[C@H](N)C(=O)O; 4Pal = N[C@@H](Cc1ccncc1)C(=O)O; 3Thi = N[C@@H](Cc1ccsc1)C(=O)O; Cha = N[C@@H](CC1CCCCC1)C(=O)O; Cit = NC(=O)NCCC[C@H](N)C(=O)O; Thr(3ξ) = CC(O)[C@H](N)C(=O)O; Carboxymethyl = O=C(O)C*; Orn = NCCC[C@H](N)C(=O)O; Aun = NCCCCCCCCCCC(=O)O; Dab = NCC[C@H](N)C(=O)O; AEEA = NCCOCCOCC(=O)O

The assay deals with T1, PD-1/PD-L1 interaction (PE-labeled human PD-L1-Ig binding to Jurkat cell line over-expressing human PD-1) (Homo sapiens, UniProt Q15116).
T1 construct: expressed in transfected cells; host or cells: Jurkat
T1 sequence (Q15116 25-288): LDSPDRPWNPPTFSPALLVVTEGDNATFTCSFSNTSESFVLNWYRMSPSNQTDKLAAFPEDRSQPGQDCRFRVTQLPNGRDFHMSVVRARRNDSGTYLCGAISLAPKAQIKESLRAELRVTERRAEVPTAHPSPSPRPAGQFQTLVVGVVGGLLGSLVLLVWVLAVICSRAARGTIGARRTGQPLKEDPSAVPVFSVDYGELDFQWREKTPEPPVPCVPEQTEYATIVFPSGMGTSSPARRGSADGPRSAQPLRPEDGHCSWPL
The assay is described as follows: Jurkat-PD-1 Cell Binding High-Content Screening Assay (CBA). Format: cell-based. Conditions: Jurkat cell line over-expressing human PD-1; PE-labeled PD-L1-Ig 20 nM final; read-out: Jurkat hPD1-PDL1 IC50. The essentials:
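Binding of fluorescent PD-L1-Ig (phycoerythrin on Ig tag, 20 nM final, 1 h) measured by high-content imaging of fixed, Hoechst-counterstained Jurkat-hPD-1 cells. Compound added 2 h at 37° C beforehand, in DMEM with 10% fetal calf serum.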
As a reminder, the IC50 is the concentration at which inhibition is half-maximal. On to `CC(C)C[C@H]1NC(=O)[C@H](CCCN)NC(=O)[C@H](C(C)C)NC(=O)[C@H](Cc2ccc(-c3ccccc3)cc2)NC(=O)[C@H](C(C)C)NC(=O)[C@H](Cc2c[nH]c3ccccc23)NC(=O)[C@H](CC(=O)O)NC(=O)[C@H](Cc2ccc(OCC(=O)O)cc2)NC(=O)[C@H](CCCCNC(=N)N)NC(=O)CSC[C@@H](C(=O)NCC(=O)NCCOCCOCC(=O)N[C@@H](CCCN)C(=O)NCCCCCCCCCCC(=O)O)NC(=O)[C@H](CCCCN)NC(=O)[C@H](C(C)C)NC(=O)[C@H](CC2CCCCC2)NC(=O)[C@H](CC(N)=O)NC1=O` [Compound 3204] ({CH2CO}-[hArg]Y(Carboxymethyl)DWV[Bip]V[Orn][dL]N[Cha]VKCG[AEEA][Orn][Aun]-OH; thioether N-14), for which the IC50 worked out at 0.0127 µM. Next, `CC(C)C[C@H]1NC(=O)[C@H](CCCN)NC(=O)[C@H](C(C)C)NC(=O)[C@H](Cc2ccc(-c3ccccc3)cc2)NC(=O)[C@H](C(C)C)NC(=O)[C@H](Cc2c[nH]c3ccccc23)NC(=O)[C@H](CC(=O)O)NC(=O)[C@H](Cc2ccc(OCC(=O)O)cc2)NC(=O)[C@H](Cc2ccc(OCC(=O)O)cc2)NC(=O)CSC[C@@H](C(=O)NCC(=O)NCCOCCOCC(=O)N[C@@H](CCCN)C(=O)NCCCCCCCCCCC(=O)O)NC(=O)[C@H](CCCN)NC(=O)[C@H](C(C)C)NC(=O)[C@H](CC2CCCCC2)NC(=O)[C@H](CC(N)=O)NC1=O` [Compound 3205] ({CH2CO}-Y(Carboxymethyl)Y(Carboxymethyl)DWV[Bip]V[Orn][dL]N[Cha]V[Orn]CG[AEEA][Orn][Aun]-OH; thioether N-14): 0.0124 µM; `CC(C)C[C@H]1NC(=O)[C@H](CCCN)NC(=O)[C@H](C(C)C)NC(=O)[C@H](Cc2ccc(-c3ccccc3)cc2)NC(=O)[C@H](C(C)C)NC(=O)[C@H](Cc2c[nH]c3ccccc23)NC(=O)[C@H](CC(=O)O)NC(=O)[C@H](Cc2ccc(C(=O)O)cc2)NC(=O)[C@H](Cc2ccc(OCC(=O)O)cc2)NC(=O)CSC[C@@H](C(=O)NCC(=O)NCCOCCOCC(=O)N[C@@H](CCCN)C(=O)NCCCCCCCCCCC(=O)O)NC(=O)[C@H](CCCN)NC(=O)[C@H](C(C)C)NC(=O)[C@H](CC2CCCCC2)NC(=O)[C@H](CC(N)=O)NC1=O` [Compound 3206] ({CH2CO}-Y(Carboxymethyl)[Phe(4-COOH)]DWV[Bip]V[Orn][dL]N[Cha]V[Orn]CG[AEEA][Orn][Aun]-OH; thioether N-14): 0.0245 µM; `CC(C)C[C@H]1NC(=O)[C@H](CCCN)NC(=O)[C@H](C(C)C)NC(=O)[C@H](Cc2ccc(-c3ccccc3)cc2)NC(=O)[C@H](C(C)C)NC(=O)[C@H](Cc2c[nH]c3ccccc23)NC(=O)[C@H](CC(=O)O)NC(=O)[C@H](Cc2ccc(OCC(=O)O)cc2)NC(=O)[C@H](Cc2ccncc2)NC(=O)CSC[C@@H](C(=O)NCC(=O)NCCOCCOCC(=O)N[C@@H](CCCN)C(=O)NCCCCCCCCCCC(=O)O)NC(=O)[C@H](CCCN)NC(=O)[C@H](C(C)C)NC(=O)[C@H](CC2CCCCC2)NC(=O)[C@H](CC(N)=O)NC1=O` [Compound 3207] ({CH2CO}-[4Pal]Y(Carboxymethyl)DWV[Bip]V[Orn][dL]N[Cha]V[Orn]CG[AEEA][Orn][Aun]-OH; thioether N-14): 0.0174 µM. Next, `CC(C)C[C@H]1NC(=O)[C@H](CCCNC(N)=O)NC(=O)[C@H](C(C)C)NC(=O)[C@H](Cc2ccc(-c3ccccc3)cc2)NC(=O)[C@H](C(C)C)NC(=O)[C@H](Cc2c[nH]c3ccccc23)NC(=O)[C@H](CC(=O)O)NC(=O)[C@H](Cc2ccc(OCC(=O)O)cc2)NC(=O)[C@H](Cc2ccsc2)NC(=O)CSC[C@@H](C(=O)NCCOCCOCC(=O)N[C@@H](CCCN)C(=O)NCCCCCCCCCCC(=O)O)NC(=O)[C@H](C(C)O)NC(=O)[C@H](C(C)C)NC(=O)[C@H](CC2CCCCC2)NC(=O)[C@H](CCN)NC1=O` (stereo partly drawn) [Compound 3208] ({CH2CO}-[3Thi]Y(Carboxymethyl)DWV[Bip]V[Cit][dL][Dab][Cha]V[Thr(3ξ)]C[AEEA][Orn][Aun]-OH; thioether N-14): 0.603 µM.
